# In paper PMC9120478 (Nature Communications, 2022):
# Positions count from the first letter of the chain named.
# Legend:
# TRPV3-F633A = biological target: T1, TRPV3-F633A (Mus musculus, UniProt Q8K424, F633A); experiment: Fura-2 ratiometric Ca2+ uptake, inhibition of 2-APB-evoked response; assay type: cell-based
# T1 construct: expressed in transfected cells; host or cells: HEK 293 S GnTI- cells (baculovirus transduction)
# T1 sequence (Q8K424 1-791 F633A): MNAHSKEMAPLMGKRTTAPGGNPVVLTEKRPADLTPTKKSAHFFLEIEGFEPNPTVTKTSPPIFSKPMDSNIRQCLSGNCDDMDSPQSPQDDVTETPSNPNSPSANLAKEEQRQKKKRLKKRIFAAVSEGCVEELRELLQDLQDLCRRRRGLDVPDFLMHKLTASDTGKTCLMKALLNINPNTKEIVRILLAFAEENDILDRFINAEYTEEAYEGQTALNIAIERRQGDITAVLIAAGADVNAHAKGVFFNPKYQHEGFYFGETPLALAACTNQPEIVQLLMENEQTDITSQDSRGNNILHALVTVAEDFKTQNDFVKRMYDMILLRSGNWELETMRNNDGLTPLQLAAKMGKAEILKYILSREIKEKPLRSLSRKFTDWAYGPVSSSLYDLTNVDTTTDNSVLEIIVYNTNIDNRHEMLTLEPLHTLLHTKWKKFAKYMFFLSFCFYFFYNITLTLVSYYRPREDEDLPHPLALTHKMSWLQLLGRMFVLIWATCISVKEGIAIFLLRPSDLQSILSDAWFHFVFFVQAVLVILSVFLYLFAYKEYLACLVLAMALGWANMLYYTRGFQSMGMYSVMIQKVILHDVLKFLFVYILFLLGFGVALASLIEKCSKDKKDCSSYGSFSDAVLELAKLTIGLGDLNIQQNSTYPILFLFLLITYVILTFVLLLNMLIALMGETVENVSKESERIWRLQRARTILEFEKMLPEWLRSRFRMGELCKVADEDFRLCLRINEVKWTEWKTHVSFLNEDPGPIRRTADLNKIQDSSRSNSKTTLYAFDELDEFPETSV
# Text: (§1) The portal site in TRPV3 has not been previously shown to bind small-molecule inhibitors. This site, however, was originally proposed to be an entry pathway for local anesthetics to the pore of sodium channels[47]–[49] and found to accommodate cannabidiol in TRPV2, a closely-related representative of the vanilloid subfamily of TRP channels. […] We concluded that the Y594A mutation altered gating properties of TRPV3 and excluded this mutant from further analysis.
# (§2) GFP-free C-terminally strep-tagged wild-type TRPV3, TRPV3-Y564A, TRPV3-Y594A, TRPV3-F633A, TRPV3-I663W, and TRPV3-F666A were expressed in HEK 293 S GnTI^− cells as previously described[41],[42],[53]. In short, 48 h after transduction, 1-ml aliquots of cell suspension were collected by centrifugation at 550 g for 5 min using an Eppendorf 5424 centrifuge. The cells were resuspended in the pre-warmed modified HEPES-buffered saline (HBS) containing 118 mM NaCl, 4.8 mM KCl, 1 mM MgCl2, 5 mM D-glucose, and 10 mM HEPES pH 7.4 and 5 μg/ml Fura-2 AM (Thermo Fisher Scientific) and incubated for 45 min at 37 °C. The Fura-2-loaded cells were then centrifuged for 5 min at 550 g, resuspended in the pre-warmed, modified HBS and incubated again for 30 min at 37 °C in the dark. The cells were subsequently pelleted and washed twice in the modified HBS. The washed cell pellets were kept on ice in the dark before taking an aliquot for fluorescence measurements. […] We used the lower CaCl2 concentration than before[42],[28] (2.5 mM) to minimize non-specific effects, which often appeared as a drift in the Fura-2 signal at high Ca^2+ concentration, presumably due to cell death as a result of calcium overload. Fluorescence measurements were conducted using a QuantaMaster 40 spectrofluorometer (Photon Technology International) at room temperature in a quartz cuvette under constant stirring. After 60 s since the beginning, the recording was paused and 2-APB was added. After the addition of 2-APB, the recording was continued for the additional 140 s. Changes in intracellular Ca^2+ were measured by taking the ratio of fluorescence emitted at 510 nm at the excitation wavelength of 340 nm and 380 nm. […] The data were processed using Origin 9.0 (OriginLab) software.
# TRPV3-I663W = biological target: T2, TRPV3-I663W (Mus musculus, UniProt Q8K424, I663W); experiment: as above; assay type: cell-based; conditions: n = 3
# T2 construct: expressed in transfected cells; host or cells: HEK 293 S GnTI- cells (baculovirus transduction)
# T2 sequence (Q8K424 1-791 I663W): T1 sequence (Q8K424 1-791 F633A) with A633F, I663W
# Text: as §1, §2
# [1] = no reference given; cited from earlier work
# [2] = tested on: TRPV3 I674A gate residue mutant; conditions: cited from earlier work
smiles,measurement,setting,value
"CCCCOc1ccc(C(=O)CCN2CCCCC2)cc1 [dyclonine, 1-(4-butoxyphenyl)-3-piperidin-1-ylpropan-1-one]",IC50 of F633A compared to wild-type channels,TRPV3-F633A,three times smaller
same,IC50,"TRPV3-F633A; 200 µM 2-APB, n = 6, read-out: IC50, inhibition of F633A mutant",9.8 ± 0.7 µM
same,"nHill of inhibition curve, F633A","TRPV3-F633A; logistic fit, n = 6",1.68 ± 0.19
same,IC50,"TRPV3-I663W; 200 µM 2-APB, read-out: IC50, inhibition of I663W mutant",31.5 ± 1.6 µM
same,"nHill of inhibition curve, I663W",TRPV3-I663W; logistic fit,1.63 ± 0.07
same,pKa,[1],8.36
same,inhibitory potency at I674A mutant,[2],reduced inhibitory potency
